The values that follow come from ChEMBL document CHEMBL1152357, “Synthesis and biological activity of heteroaryl 3-(1,1-dioxo-2H-(1,2,4)-benzothiadizin-3-yl)-4-hydroxy-2(1H)-quinolinone derivatives as hepatitis C virus NS5B polymerase inhibitors” (Bioorg Med Chem Lett, 2009).

Where only a bound is given, the exact number is not on record here.

In general, IC50 refers to the point on the concentration scale where inhibition reaches its midpoint. High values mean weaker potency in that assay, low ones greater potency in that assay.

Data set [1] concerns Hepatitis C virus. Description: Inhibition of HCV 1b NS5B polymerase expressed in Sf9 cells. More on the design: species or system Hepatitis C virus subtype 1b.
In data set [2] the test system is Hepatitis C virus. The data set is described as follows: Antiviral activity against HCV 1b infected in human hepatoma cells by replicon assay. It is filed as functional, organism-based, Hepacivirus hominis. The conditions noted are these: genotype 1b.
The next data set addresses Albumin (Homo sapiens, UniProt P02768). The data set is described as follows: Binding affinity to human serum albumin. Format: ADME. The following applies: isolated protein.

Albumin, sequence (P02768 whole entry): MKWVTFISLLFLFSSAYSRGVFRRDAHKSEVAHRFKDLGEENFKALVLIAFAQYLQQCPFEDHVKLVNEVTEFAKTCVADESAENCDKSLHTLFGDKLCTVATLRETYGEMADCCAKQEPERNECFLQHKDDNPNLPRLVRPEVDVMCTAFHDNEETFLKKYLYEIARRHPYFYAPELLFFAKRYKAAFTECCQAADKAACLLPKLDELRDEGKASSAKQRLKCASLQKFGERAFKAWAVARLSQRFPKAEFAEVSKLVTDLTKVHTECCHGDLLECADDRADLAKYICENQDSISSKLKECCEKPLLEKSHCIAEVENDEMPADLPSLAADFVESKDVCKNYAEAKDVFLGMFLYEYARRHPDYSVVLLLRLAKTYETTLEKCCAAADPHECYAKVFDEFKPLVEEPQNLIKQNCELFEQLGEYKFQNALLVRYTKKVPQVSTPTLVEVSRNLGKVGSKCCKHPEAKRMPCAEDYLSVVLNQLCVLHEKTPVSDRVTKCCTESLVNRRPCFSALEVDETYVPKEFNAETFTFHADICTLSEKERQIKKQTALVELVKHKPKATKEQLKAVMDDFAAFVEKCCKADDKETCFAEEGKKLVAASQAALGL

For `CC(C)CCn1c(=O)c(C2=NS(=O)(=O)c3cc(Cl)sc3N2)c(O)c2ccccc21`, the values for the half-maximal inhibitory concentration (IC50) in the data set on Hepatitis C virus [1] and in the data set on Hepatitis C virus [2] were 57 nM and greater than 20000 nM, respectively.
In the data set on Hepatitis C virus [1], `CC(C)CCn1c(=O)c(C2=NS(=O)(=O)c3ccccc3N2)c(O)c2cc(-c3ccccc3)sc21` displayed an IC50 greater than 30000 nM.
As for `NC(=O)COc1ccc2c(c1)S(=O)(=O)N=C(c1c(O)c3cccnc3n(CCC3CC3)c1=O)N2`, the figures for the half-maximal inhibitory concentration (IC50) in the data set on Hepatitis C virus [1] and in the data set on Hepatitis C virus [2] were less than 5 nM and 51 nM, respectively. The molecule further had an Activity at Albumin of 97.8%.
The like results for `CC(C)CCn1c(=O)c(C2=Nc3ccc(OCC(N)=O)cc3S(=O)(=O)N2)c(O)c2cccnc21` were, in that order, less than 5 nM, 52 nM and 98.4%.
As to `CC(C)CCn1c(=O)c(C2=NS(=O)(=O)C3=C(CCN(CCC(N)=O)C3)N2)c(O)c2ccccc21`, the 50% inhibitory concentration (IC50) in the data set with Hepatitis C virus [1] was 288 nM; in the data set with Hepatitis C virus [2], greater than 20000 nM. This molecule registered an Activity at Albumin of 98%.
Regarding `CC(C)CCn1c(=O)c(C2=NS(=O)(=O)c3ccccc3N2)c(O)c2cnn(C)c21`, in the data set with Hepatitis C virus [1], half-maximal inhibition (IC50) was put at 3340 nM. The molecule further came in with an Activity on Albumin of 97%.
For the molecule `CC(C)CCn1c(=O)c(C2=NS(=O)(=O)c3c[n+]([O-])ccc3N2)c(O)c2ccccc21`, the results for the half-inhibitory concentration (IC50) in the data set on Hepatitis C virus [1] and in the data set on Hepatitis C virus [2] were 18 nM and 2380 nM, respectively. The Activity at Albumin was found to be 97.7%.
For the molecule `CC(C)CCn1c(=O)c(C2=NS(=O)(=O)C3=C(CCN(CCCN)C3)N2)c(O)c2ccccc21`, the IC50 with Hepatitis C virus [1] came out at 728 nM. Also, the Activity at Albumin was 98.3%.
In the data set with Hepatitis C virus [1], `CC(C)CCn1c(=O)c(C2=NS(=O)(=O)c3c(sc(Cl)c3Br)N2)c(O)c2ccccc21` returned an IC50 of 3020 nM.
Consider `CC(C)CCn1c(=O)c(C2=NS(=O)(=O)c3ccsc3N2)c(O)c2ccccc21`, for which the IC50 in the data set on Hepatitis C virus [1] is 20 nM; in the data set with Hepatitis C virus [2], 2890 nM. Also, on Albumin, the Activity is 99.5%.
Regarding `CC(C)CCn1c(=O)c(C2=NS(=O)(=O)C3=C(CCN(CCC#N)C3)N2)c(O)c2ccccc21`, the half-maximal inhibitory concentration (IC50) with Hepatitis C virus [1] came to 132 nM; with Hepatitis C virus [2], 4320 nM.
Molecule `CC(=O)N1CCC2=C(C1)S(=O)(=O)N=C(c1c(O)c3ccccc3n(CCC(C)C)c1=O)N2` yielded a half-maximal inhibitory concentration (IC50) with Hepatitis C virus [1] of 1530 nM. At Albumin, this molecule came in with an Activity of 98%.
Taken in the same sequence, the figures for `COC(=O)CN1CCC2=C(C1)S(=O)(=O)N=C(c1c(O)c3ccccc3n(CCC(C)C)c1=O)N2` were 879 nM and 97.6%.
Take `CC(C)CCn1c(=O)c(C2=NS(=O)(=O)C3=C(CCN(CCc4nnn[nH]4)C3)N2)c(O)c2ccccc21`: the figures for the IC50 in the data set with Hepatitis C virus [1] and in the data set with Hepatitis C virus [2] were 289 nM and greater than 30000 nM, respectively. This molecule also registered an Activity on Albumin of 98.7%.
For `CC(C)CCn1c(=O)c(C2=NS(=O)(=O)c3ccccc3N2)c(O)c2ccccc21`, in the data set with Hepatitis C virus [2], half-maximal inhibition (IC50) was put at 417 nM. On Albumin, this molecule came in with an Activity greater than 99.9%.
`CC(C)CCn1c(=O)c(C2=NS(=O)(=O)c3ccccc3N2)c(O)c2cc(Br)sc21` gave an IC50 in the data set with Hepatitis C virus [1] of 1170 nM. In addition, the Activity at Albumin was greater than 99.9%.
Regarding `CC(C)CCn1c(=O)c(C2=NS(=O)(=O)c3ncccc3N2)c(O)c2ccccc21`, the IC50 in the data set with Hepatitis C virus [1] was 31 nM; in the data set on Hepatitis C virus [2], 743 nM. At Albumin, this molecule had an Activity of 98.7%.
The like results for `CC(C)CCn1c(=O)c(C2=NS(=O)(=O)c3ccccc3N2)c(O)c2sccc21` were, in that order, greater than 48 nM, 942 nM and greater than 99.9%.
Turning to `CC(C)CCn1c(=O)c(C2=NS(=O)(=O)C3=C(CCNC3)N2)c(O)c2ccccc21`, the IC50 came to 604 nM with Hepatitis C virus [1] and 12200 nM in the data set on Hepatitis C virus [2]. This molecule also displayed an Activity on Albumin of 98.2%.
For `CC(C)CCn1c(=O)c(C2=NS(=O)(=O)c3cc(OCC(N)=O)ccc3N2)c(O)c2ccccc21`, the IC50 in the data set with Hepatitis C virus [1] stood at 6 nM; with Hepatitis C virus [2], 15 nM. This molecule showed an Activity at Albumin of 99.2%.
Turning to `CC(C)CCn1c(=O)c(C2=NS(=O)(=O)c3cccnc3N2)c(O)c2ccccc21`, the IC50 came out at 51 nM with Hepatitis C virus [1] and 1680 nM in the data set on Hepatitis C virus [2].
Taken in the same sequence, the figures for `CC(C)CCn1c(=O)c(C2=NS(=O)(=O)C3=C(CCN(CC(=O)O)C3)N2)c(O)c2ccccc21` were 276 nM and greater than 20000 nM.
On to `CC(C)CCn1c(=O)c(C2=NS(=O)(=O)c3cnccc3N2)c(O)c2ccccc21`, for which the IC50 came to 20 nM in the data set with Hepatitis C virus [1] and 226 nM in the data set on Hepatitis C virus [2]. Further, the Activity at Albumin is 99%.
In turn, `CSc1ncc2c(O)c(C3=NS(=O)(=O)c4ccccc4N3)c(=O)n(CCC(C)C)c2n1` registered an IC50 in the data set on Hepatitis C virus [1] greater than 30000 nM.
For the molecule `CCN1CCC2=C(C1)S(=O)(=O)N=C(c1c(O)c3ccccc3n(CCC(C)C)c1=O)N2`, the IC50 with Hepatitis C virus [1] turned out to be 679 nM; in the data set on Hepatitis C virus [2], 40000 nM. This molecule also came in with an Activity at Albumin of 97.9%.
The like results for `Cc1nn(C)c2c1S(=O)(=O)N=C(c1c(O)c3ccccc3n(CCC(C)C)c1=O)N2` were, in that order, 200 nM, greater than 20000 nM and 98.5%.
The like results for `CC(C)CCn1c(=O)c(C2=NS(=O)(=O)c3cc(O)ccc3N2)c(O)c2sccc21` were, in that order, 16 nM, 1190 nM and 99%.
As to `CC(C)CCn1c(=O)c(C2=NS(=O)(=O)c3c(cc[nH]c3=O)N2)c(O)c2ccccc21`, the concentration for half-maximal inhibition (IC50) in the data set on Hepatitis C virus [1] amounted to 16 nM; in the data set on Hepatitis C virus [2], 13700 nM.
With `CC(C)CCn1c(=O)c(C2=NS(=O)(=O)c3cc(O[C@H](C)C(N)=O)ccc3N2)c(O)c2cccnc21`, the 50% inhibitory concentration (IC50) in the data set on Hepatitis C virus [1] was less than 5 nM; in the data set on Hepatitis C virus [2], 47 nM. Besides, the Activity at Albumin is reported as 98.3%.
The like results for `CC(C)CCn1c(=O)c(C2=NS(=O)(=O)c3ccccc3N2)c(O)c2cccnc21` were, in that order, 212 nM, 1360 nM and greater than 99.9%.
`CC(C)CCn1c(=O)c(C2=NS(=O)(=O)c3cc(OCC(N)=O)ccc3N2)c(O)c2ccsc21`: the half-maximal inhibitory concentration (IC50) with Hepatitis C virus [1] was less than 5 nM; in the data set on Hepatitis C virus [2] it was 238 nM. On Albumin, this molecule came in with an Activity of 98.7%.
In the data set with Hepatitis C virus [1], `CNC(=O)N1CCC2=C(C1)S(=O)(=O)N=C(c1c(O)c3ccccc3n(CCC(C)C)c1=O)N2` yielded a half-maximal inhibitory concentration (IC50) of 774 nM. For the same molecule, the Activity on Albumin is recorded as 98.2%.
Turning to `CC(C)CCn1c(=O)c(C2=NS(=O)(=O)c3cc(OCC(N)=O)ccc3N2)c(O)c2sccc21`, the values for the IC50 in the data set on Hepatitis C virus [1] and with Hepatitis C virus [2] were less than 5 nM and 126 nM, respectively. At Albumin, this molecule gave an Activity of 98.3%.
Taken in the same sequence, the figures for `CC(C)CCn1c(=O)c(C2=NS(=O)(=O)c3cc(O[C@H](C)C(N)=O)ccc3N2)c(O)c2sccc21` were less than 5 nM, 114 nM and 98.3%.
Molecule `CC(C)CCn1c(=O)c(C2=NS(=O)(=O)C3=C(CCN(C(=O)Nc4ccccc4)C3)N2)c(O)c2ccccc21` showed a half-maximal inhibitory concentration (IC50) in the data set on Hepatitis C virus [1] of 975 nM. This molecule also displayed an Activity on Albumin of 99.4%.
As to `CC(C)CCn1c(=O)c(C2=NS(=O)(=O)c3ccccc3N2)c(O)c2ccsc21`, the IC50 in the data set on Hepatitis C virus [1] was found to be 132 nM; in the data set on Hepatitis C virus [2], 1160 nM. Besides, on Albumin, the Activity was greater than 99.9%.
As to `O=c1c(C2=NS(=O)(=O)c3cc(O)ccc3N2)c(O)c2cccnc2n1CCC1CC1`, the IC50 in the data set on Hepatitis C virus [1] stood at 12 nM; with Hepatitis C virus [2], 542 nM. The molecule also returned an Activity on Albumin of 98.8%.
Consider `CC(C)CCn1c(=O)c(C2=NS(=O)(=O)c3cc(O)ccc3N2)c(O)c2cccnc21`, for which the IC50 came out at 16 nM with Hepatitis C virus [1] and 473 nM in the data set on Hepatitis C virus [2]. The same molecule registered an Activity at Albumin of 99%.
`C[C@@H](Oc1ccc2c(c1)S(=O)(=O)N=C(c1c(O)c3cccnc3n(CCC3CC3)c1=O)N2)C(N)=O` displayed an IC50 in the data set with Hepatitis C virus [1] of less than 5 nM. Moreover, at Albumin, the Activity was 97.8%.
Take `CC(C)CCn1c(=O)c(C2=NS(=O)(=O)c3cc(O)ccc3N2)c(O)c2ccsc21`: the IC50 came out at 25 nM with Hepatitis C virus [1] and 471 nM in the data set with Hepatitis C virus [2]. Besides, the Activity at Albumin is recorded as 99.1%.
For the molecule `CC(C)CCn1c(=O)c(C2=NS(=O)(=O)c3ccccc3N2)c(O)c2cn[nH]c21`, the half-inhibitory concentration (IC50) with Hepatitis C virus [1] worked out at 4940 nM. At Albumin, this molecule displayed an Activity of 97.6%.
